Data taken from patent EP2919004A1, “Bioassays on modified TLC/HPTLC plates” (Merck Patent GmbH, priority 2014, dated 2015).

system: hER; test: HPTLC-pYES (planar yeast estrogen screen) on RP-18 W plate, lac-Z reporter / MUG fluorescence; format: cell-based, human; settings: E2 equivalent calculated as EC50E2/EC50sample; recombinant Saccharomyces cerevisiae BJ3505; dose-response curves after separation on RP 18W plate, n=4
Experimental: HPTLC. Standard and sample solutions (0.1-10 µL) were applied on the HPTLC plate RP-18 W (Merck Millipore, Darmstadt, Germany) as 6.5 mm bands by the Automatic TLC Sampler 4 (ATS4; CAMAG, Muttenz, Switzerland). […] The standard mixture was applied by overspaying of the individual standard solutions, which allowed flexibility for individual mixtures and volumes. For determination of the recovery rate, 0.1 µL P1 sample was sprayed on the plate and oversprayed with 0.1 µL - 2 µL CAPE standard solution. After sample application, the start zones were dried for 1 min using a hair dryer. Development was performed in a Twin Trough Chamber (20 x 10 cm, CAMAG), using n-hexane - toluene - ethyl acetate 4:1.5:1, v/v/v (all from ROTH) up to a migration distance of 70 mm. After development, the plate was dried with cold air using a hair dryer for 2 min to remove the residual solvent. The developed plate was documented at 366 nm illumination using the TLC Visualizer (CAMAG).
Cell cultivation. Saccharomyces cerevisiae BJ3505 (protease-deficient, MATα, PEP4: HIS3, Prb1Δ1.6R, HIS3Δ200, lys2-208, trp1Δ101, ura3-52) generated by McDonnell et al. (61, 62) was used for the pYES-assay. All experimental studies were based on stock of the recombinant estrogen sensitive yeast cells stored in 30% glycerol supplemented growth media, consisting of D-glucose 1 g/L, yeast nitrogen base 6.8 g/L, both Sigma Aldrich, Steinheim, Germany, and amino acid components according to Routledge and Sumpter (50), at -80 °C. From the stock, cells were streaked on an agar plate with growth medium (30°C, two days) to supply colonies for further suspension cultivation. Shaking suspension cultures were inoculated in 20 mL growth medium and cultured at 30 °C at 100 rpm for 18 h. Prior to the assay, cell concentration and viability determination was performed using a hemocytometer and trypan blue (0.4% Sigma Aldrich) staining. For the pYES, the cell number was adjusted to 2.5 x 10^8 cells in 50 mL with 150 µM CuSO4 supplemented growth medium. To remain constant cell quality within the exponential growth phase for further studies, cells were split daily by 1:10 dilution.
HPTLC-pYES. As the HPTLC was developed and cells were prepared, the pYES assay was started. The plate was automatically immersed into the cell suspension using the TLC Immersion Device (CAMAG) with a speed of 3.5 cm/s and an immersion time of 5 s. Thus, the cell suspension was homogeneously transferred onto the plate surface. The wettened plate was incubated in a horizontal position in a plastic box under almost 100% humidified air at 30 °C for 3 h. Thereafter, the plate was dried with cold air using a hair dryer for 2 min. For determination of the resulting ß-galactosidase, the plate was treated with the substrate 4-methylumbelliferyl-ß-D-galactopyranoside (MUG, Roth). ß-galactosidase acts on the substrate MUG to produce 4-methylumbelliferone (MU), detected as blue fluorescence at pH>7. MUG was dissolved in DMSO (20 mg/mL, Roth) and added to the reaction buffer (citric acid 6 g/L, disodium hydrogen phosphate 10 g/L, pH 12, Merck) to a final concentration of 0.5 mg/mL. The dried plate was immersed in the substrate solution according to the previous speed and immersion time. A second incubation period of 60 min at 37°C followed. The substrate reaction was terminated by immersion of the plate into a solution of glycine - NaOH (0.1 M, Roth), pH°12. […] Fluorescence measurement at 366/>400 nm was performed with the mercury lamp using the TLC Scanner 3 (CAMAG). Images were taken at 366 nm illumination using the Reprostar 3 documentation system (CAMAG).
The half maximal effective concentration (EC50) was calculated for comparison of the receptor affinities.

Structure (SMILES)	E2Eq
CC(C)(c1ccc(O)cc1)c1ccc(O)cc1 [BPA, bisphenol A]	3.3x10^-4
C#C[C@]1(O)CC[C@H]2[C@@H]3CCc4cc(O)ccc4[C@H]3CC[C@@]21C [EE2, 17α-ethinylestradiol]	0.3
CCCCCCCCCc1ccc(O)cc1 [NP, 4-n-Nonylphenol]	2.3x10^-4

same assay, conditions: standard solutions or sample zone detected with the pYES; qualitative

Structure (SMILES)	estrogenic/bioactive effect in pYES
O=C(/C=C/c1ccc(O)c(O)c1)OCCc1ccccc1 [CAPE, Caffeic acid phenethyl ester]	bioactive EDC zone
O=c1cc(-c2ccc(O)c(O)c2)oc2cc(O)cc(O)c12 [luteolin]	showed an estrogenic/bioactive effect
O=c1c(O)c(-c2ccc(O)c(O)c2)oc2cc(O)cc(O)c12 [quercetin]	showed an estrogenic/bioactive effect
